Molecular target: human Caf1/CNOT7 (Homo sapiens, UniProt Q9UIV1)
Assay: Fluorescence-based Caf1/CNOT7 nuclease activity assay (Flc-RNA substrate, TAMRA-labelled DNA probe)
Format: biochemical
Conditions: mean ± standard deviation; 0.4 μM Caf1/CNOT7, 0.1 μM Flc-RNA substrate, 15 min preincubation, 60 min at 30 °C
Procedure: Compounds (10 mM in DMSO) were stored in a dry, inert environment at −20 °C in an automated sample management system (comPOUND, TTP Labtech Technology, Melbourn, UK). After dispensing aliquots in 96-well plates, compounds were diluted to 0.5 mM in 20% DMSO/water. Aliquots ([…]; […]) were transferred to black U-well 384-well plates (Greiner Bio-One, Kremsmünster, Austria) using a multichannel pipette. Subsequent screening was carried out as described before with modifications for use with a Biomek 3000 liquid handler (Beckman Coulter, Brea, CA, USA). First, enzyme (8 μL containing 1.0 μM Caf1/CNOT7, 50 mM Tris–HCl pH 7.9, 125 mM NaCl, 5 mM MgCl2, 25% glycerol, 2.5 mM β-mercaptoethanol) was added. After mixing, the mixture was left at room temperature for 15 min before the addition of RNA substrate (8 μL; 0.25 μM Flc-RNA substrate in H2O). The composition of the final reaction mixture was: 0.4 μM Caf1/CNOT7, 0.1 μM Flc-RNA substrate, 20 mM Tris–HCl pH 7.9, 50 mM NaCl, 2 mM MgCl2, 10% glycerol, 1 mM β-mercaptoethanol, 5% DMSO, and 100 μM library compound. After incubation at 30 °C for 60 min, 20 μL probe mix (5 μM DNA probe, 1% SDS, 20 mM Tris–HCl pH 8.0, 0.5 mM EDTA) was added. Fluorescence was measured using a BioTek Synergy HT plate reader using the following filters: 485 ± 20 nm (excitation) and 528 ± 20 nm (emission). Hits were identified following data analysis in Microsoft Excel. Screening data was visualised using GraphPad Prism (version 10.4.0).
Reaction conditions and fluorescence measurements were as described above and before. Non-linear regression was carried out using GraphPad Prism 5.0. IC50 values were typically determined using three independent experiments, each containing three replicates.
To discover new inhibitors of the Caf1/CNOT7 nuclease subunit of the Ccr4–Not complex, we screened a sub-set of the Nottingham Managed Chemical Compound Collection, which contains over 83,000 synthetic compounds that are commercially available and were selected based on chemical diversity and drug-like properties. A representative sub-set of 10,880 compounds was selected and screened in duplicate in a 384-well plate format (Figure 1A). The library compounds were screened using a fluorescence-based activity assay that was developed previously. Briefly, purified Caf1/CNOT7 enzyme was pre-incubated with library compounds. This was followed by the addition of a 5′ fluorescein-labelled RNA oligonucleotide containing a stretch of nine adenosine residues at the 3′ end that served as substrate for Caf1/CNOT7. After incubation, the reaction was terminated and a 3′ TAMRA-labelled DNA probe complementary to the substrate was added. […] However, in case Caf1/CNOT7 was inhibited, the substrate remained intact, resulting in annealing of the DNA probe and quenching of fluorescence due to the close vicinity of the fluorescein and TAMRA fluorophores (Figure 1B).
Figure 3 Determination of the IC50 values of small-molecule inhibitors of Caf1/CNOT7. Compounds were preincubated with Caf1/CNOT7 for 15 min at room temperature, followed by the addition of RNA substrate. After incubation (60 min at 30 °C), reactions were stopped by the addition of SDS and a 5-fold molar excess of DNA probe. The mean values for each independent experiment were plotted (Open square, experiment 1; closed circle, experiment 2; diamond, experiment 3).

Sequence of human Caf1/CNOT7 (Q9UIV1 whole entry): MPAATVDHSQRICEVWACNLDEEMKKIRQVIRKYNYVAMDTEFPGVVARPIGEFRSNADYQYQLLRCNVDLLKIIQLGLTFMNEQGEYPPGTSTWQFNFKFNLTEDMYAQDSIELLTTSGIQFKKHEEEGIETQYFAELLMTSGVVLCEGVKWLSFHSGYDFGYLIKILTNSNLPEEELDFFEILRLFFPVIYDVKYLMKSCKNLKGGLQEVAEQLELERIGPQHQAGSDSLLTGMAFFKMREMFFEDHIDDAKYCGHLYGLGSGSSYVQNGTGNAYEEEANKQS

| Compound | IC50 |
| --- | --- |
| O=C(Nc1cc(Br)cnc1O)c1ccc2ccccc2c1 [Compound 20] | 256 ± 20.4 µM |
| O=C(Nc1nc(-c2ccc(Cl)s2)cs1)c1ccc(O)nc1 [Compound 19] | 161 ± 13.7 µM |
| CC(=O)Nc1cccc(NC2=NN=C(c3cc(C)[nH]c3C)CS2)c1 [Compound 10] | 17.3 ± 1.1 µM |
| Cc1ccc(NC(=O)c2c[nH]nc2-c2ccc(Cl)cc2)nc1 [Compound 2] | 19.5 ± 3.4 µM |
| CC(C)NC(=O)Nc1cccc(C(=O)Nc2ccc3oc(C(F)(F)F)nc3c2)c1 [Compound 13] | 14.5 ± 10.7 µM |
| CC(=O)c1c(C)[nH]c(C(=O)Nc2nnc(Cc3ccccc3)s2)c1C [Compound 3] | 20.7 ± 0.9 µM |
| Cc1cc(NC(=O)NC2(C(F)(F)F)Oc3ccc(Cl)cc3O2)no1 (centres unmarked) [Compound 4] | 16.8 ± 2.1 µM |
| Cc1ccc(CN(Cc2ccc(C)n2C)C(=O)COc2ccccc2C#N)n1C [Compound 15] | 24.4 ± 9.2 µM |
| Cc1cccc2sc(NC(=O)CCC(=O)c3ccc(F)cc3)nc12 [Compound 8] | 18.9 ± 4.3 µM |
| CC(C)CCn1c(SCC(=O)NC(N)=O)nc2cc(Cl)ccc2c1=O [Compound 11] | 15.6 ± 3.2 µM |
| O=S(=O)(Nc1ccc(SC(F)F)cc1)c1cnn(-c2ccccc2)c1 [Compound 17] | 77.7 ± 0.3 µM |
| O=C(COC(=O)Cc1ccc(-c2ccccc2)cc1)NC(=O)c1cccs1 [Compound 21] | 78.3 ± 9.5 µM |
| CC(NC(=O)c1ccoc1)C(=O)Nc1cc(-c2cc(Cl)cc(Cl)c2)[nH]n1 (centres unmarked) [Compound 6] | 19.7 ± 2.5 µM |

More lines, in order of falling IC50, values ahead:

| IC50 | Compound |
| --- | --- |
| 122 ± 10.7 µM | Cc1sc2nc(COC(=O)Cn3cc(C(F)(F)F)ccc3=O)nc(N)c2c1C [Compound 16] |
| 57.3 ± 10.1 µM | CCOC(=O)Cc1ncccc1C(=O)Nc1ccc(Br)c(C(F)(F)F)c1 [Compound 18] |
| 21.3 ± 4.6 µM | N#Cc1cc(C#N)c(SCc2nnc(-c3cccs3)o2)nc1N [Compound 12] |
| 18.4 ± 5.9 µM | N#Cc1cccc(NC(=O)C(C#N)c2nc3ccccc3s2)c1 (centres unmarked) [Compound 9] |
| 17.8 ± 0.1 µM | Cc1ccc2nc(NC(=O)c3cc(Br)c[nH]3)sc2c1 [Compound 1] |
| 17.5 ± 4.2 µM | O=C(Cc1c[nH]c2ccccc12)OCc1ccc(F)cc1Cl [Compound 5] |
| 17.4 ± 2.7 µM | CC(C)c1ccc(-c2nnn(CC(=O)NC(=O)NCc3ccccc3)n2)cc1 [Compound 7] |
